This series deals with S. typhimurium strains TA98, TA100, TA1535 and TA1537 and E. coli strain WP2uvrA. The series is classed as cell-based. The protocol: An Ames assay was conducted on Rx100.Lysine using S. typhimurium strains TA98, TA100, TA1535 and TA1537 and E. coli strain WP2uvrA. Two trials were performed. […] See Tables 38A and 38B, respectively. In the second trial, doses ranged from 0.160 to 16 μg/plate with some strains tested with activation and others without activation.

Where two headings read alike, the source gives them in different places.

Turning to `Nc1ccc2cc3ccccc3cc2c1` [2-aminoanthracene], the “Revertant Colony Counts (Mean ± SD)” value (TA100, with metabolic activation, positive control 2.5 μg/plate) was 2106 ± 68 ^N; the “Revertant Colony Counts (Mean ± SD)” value (TA1535, with metabolic activation, positive control 2.5 μg/plate) is recorded as 205 ± 11 ^N; the “Revertant Colony Counts (Mean ± SD)” value (TA1537, with metabolic activation, positive control 2.5 μg/plate) is 176 ± 19 ^N C; the “Revertant Colony Counts (Mean ± SD)” value (WP2uvrA, with metabolic activation, positive control 25.0 μg/plate) is 634 ± 14 ^N.

For the molecule `O=[N+]([O-])c1ccc2c(c1)Cc1ccccc1-2` [2-nitrofluorene], the “Revertant Colony Counts (Mean ± SD)” value (Without Metabolic Activation, TA98, positive control 1.0 μg/plate) is on record as 329 ± 65 ^N.

For the molecule `COc1ccc2nc3cc(Cl)ccc3c(NCCCNCCCl)c2c1` [ICR-191], the “Revertant Colony Counts (Mean ± SD)” value (Without Metabolic Activation, TA1537, positive control 2.0 μg/plate) is listed as 562 ± 33 ^N.

In the case of `[N-]=[N+]=[N-]` [sodium azide], the “Revertant Colony Counts (Mean ± SD)” value is recorded as 969 ± 137 ^N (Without Metabolic Activation, TA100, positive control 2.0 μg/plate) and 863 ± 45 ^N (Without Metabolic Activation, TA1535, positive control 2.0 μg/plate).

These data come from patent US20170226139A1, “CRYSTALLINE SALTS OF (Z)-O-OCTADEC-9-EN-1-YL O,O-DIHYDROGEN PHOSPHOROTHIOATE” (priority 2013, published 2017).
